This is an account of results in ChEMBL document CHEMBL1139497, “The effects of conformational constraints and steric bulk in the amino acid moiety of philanthotoxins on AMPAR antagonism” (J Med Chem, 2005).

Usually IC50 stands for the concentration needed to halve the response being measured. Read a high IC50 as weaker potency.

The target in the first test is Glutamate receptor ionotropic, AMPA (Rattus norvegicus, UniProt P19491+P19492+P19493+P19490). As to the kind of experiment: Inhibition of kainate-induced currents of rat ionotropic glutamate receptor AMPA expressed in Xenopus laevis oocytes; not active. As to conditions: oocyte; call rule not given here. It is filed as cell-based.
Chain of Glutamate receptor ionotropic, AMPA (Rattus norvegicus, UniProt P19491+P19492+P19493+P19490) (P19491 whole entry): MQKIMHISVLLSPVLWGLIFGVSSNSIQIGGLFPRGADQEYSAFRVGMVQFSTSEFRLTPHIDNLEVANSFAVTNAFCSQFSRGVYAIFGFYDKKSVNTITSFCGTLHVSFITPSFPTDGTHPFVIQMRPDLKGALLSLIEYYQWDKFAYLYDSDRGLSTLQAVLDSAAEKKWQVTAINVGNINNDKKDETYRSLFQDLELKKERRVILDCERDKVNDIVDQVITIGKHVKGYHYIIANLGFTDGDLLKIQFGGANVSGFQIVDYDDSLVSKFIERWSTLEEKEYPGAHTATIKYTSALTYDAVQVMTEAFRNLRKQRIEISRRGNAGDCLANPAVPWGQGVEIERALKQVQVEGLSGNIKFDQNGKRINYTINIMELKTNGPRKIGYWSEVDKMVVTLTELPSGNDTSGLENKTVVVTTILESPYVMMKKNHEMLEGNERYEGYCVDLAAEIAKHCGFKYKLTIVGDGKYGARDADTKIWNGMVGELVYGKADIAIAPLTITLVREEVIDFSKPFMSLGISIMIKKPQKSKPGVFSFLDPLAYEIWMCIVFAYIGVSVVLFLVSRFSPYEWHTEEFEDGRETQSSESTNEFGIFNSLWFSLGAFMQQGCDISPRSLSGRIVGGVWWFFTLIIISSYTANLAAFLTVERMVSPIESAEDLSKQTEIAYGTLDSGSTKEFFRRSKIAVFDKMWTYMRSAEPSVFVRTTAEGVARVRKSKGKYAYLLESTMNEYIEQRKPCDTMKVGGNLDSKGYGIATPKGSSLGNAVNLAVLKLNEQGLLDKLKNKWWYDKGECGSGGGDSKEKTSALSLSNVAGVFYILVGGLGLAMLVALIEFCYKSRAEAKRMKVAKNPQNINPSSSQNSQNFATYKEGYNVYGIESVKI
Chain of Glutamate receptor ionotropic, AMPA (Rattus norvegicus, UniProt P19491+P19492+P19493+P19490) (P19492 whole entry): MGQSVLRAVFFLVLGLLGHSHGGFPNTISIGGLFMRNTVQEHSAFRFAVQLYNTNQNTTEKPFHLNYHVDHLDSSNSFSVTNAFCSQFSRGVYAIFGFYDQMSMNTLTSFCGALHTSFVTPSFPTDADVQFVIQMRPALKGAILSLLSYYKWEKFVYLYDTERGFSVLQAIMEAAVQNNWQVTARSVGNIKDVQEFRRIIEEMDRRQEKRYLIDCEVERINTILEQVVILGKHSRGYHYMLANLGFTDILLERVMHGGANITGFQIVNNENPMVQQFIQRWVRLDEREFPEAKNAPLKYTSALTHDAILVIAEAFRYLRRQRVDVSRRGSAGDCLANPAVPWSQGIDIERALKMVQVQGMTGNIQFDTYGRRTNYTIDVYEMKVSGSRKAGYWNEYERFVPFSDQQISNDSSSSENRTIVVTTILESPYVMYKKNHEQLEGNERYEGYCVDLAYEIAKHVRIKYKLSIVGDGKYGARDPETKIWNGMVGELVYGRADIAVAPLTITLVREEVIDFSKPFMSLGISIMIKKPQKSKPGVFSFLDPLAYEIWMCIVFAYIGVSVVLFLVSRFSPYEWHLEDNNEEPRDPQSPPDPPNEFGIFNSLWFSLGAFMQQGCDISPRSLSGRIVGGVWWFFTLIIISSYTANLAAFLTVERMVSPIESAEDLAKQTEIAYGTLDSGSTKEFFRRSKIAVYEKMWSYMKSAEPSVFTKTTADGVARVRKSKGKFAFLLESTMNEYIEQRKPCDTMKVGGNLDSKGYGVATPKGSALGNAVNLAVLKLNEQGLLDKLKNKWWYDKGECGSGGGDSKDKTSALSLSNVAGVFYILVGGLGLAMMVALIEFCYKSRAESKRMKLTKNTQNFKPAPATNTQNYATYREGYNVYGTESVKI
Chain of Glutamate receptor ionotropic, AMPA (Rattus norvegicus, UniProt P19491+P19492+P19493+P19490) (P19493 whole entry): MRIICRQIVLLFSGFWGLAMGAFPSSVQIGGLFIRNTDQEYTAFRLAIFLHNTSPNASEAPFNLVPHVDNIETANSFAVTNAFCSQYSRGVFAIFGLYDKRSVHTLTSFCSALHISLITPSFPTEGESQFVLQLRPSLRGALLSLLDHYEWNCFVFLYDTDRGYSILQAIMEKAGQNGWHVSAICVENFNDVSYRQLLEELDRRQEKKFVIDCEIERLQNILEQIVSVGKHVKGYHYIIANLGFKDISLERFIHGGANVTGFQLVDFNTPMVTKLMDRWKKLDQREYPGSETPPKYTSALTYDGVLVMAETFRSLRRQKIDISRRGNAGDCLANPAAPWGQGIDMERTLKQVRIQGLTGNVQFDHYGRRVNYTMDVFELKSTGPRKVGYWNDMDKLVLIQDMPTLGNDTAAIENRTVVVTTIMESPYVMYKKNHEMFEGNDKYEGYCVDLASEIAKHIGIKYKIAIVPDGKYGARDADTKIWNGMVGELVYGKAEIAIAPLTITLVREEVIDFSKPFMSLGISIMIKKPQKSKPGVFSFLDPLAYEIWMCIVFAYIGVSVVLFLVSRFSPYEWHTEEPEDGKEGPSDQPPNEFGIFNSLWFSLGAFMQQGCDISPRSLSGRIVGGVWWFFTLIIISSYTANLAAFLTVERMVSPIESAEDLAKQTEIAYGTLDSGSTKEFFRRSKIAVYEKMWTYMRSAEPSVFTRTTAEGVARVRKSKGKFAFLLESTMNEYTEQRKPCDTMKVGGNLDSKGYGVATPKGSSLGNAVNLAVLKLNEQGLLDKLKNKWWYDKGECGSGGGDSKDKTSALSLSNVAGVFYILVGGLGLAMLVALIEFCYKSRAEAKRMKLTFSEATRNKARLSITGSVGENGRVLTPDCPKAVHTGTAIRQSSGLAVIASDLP
Chain of Glutamate receptor ionotropic, AMPA (Rattus norvegicus, UniProt P19491+P19492+P19493+P19490) (P19490 whole entry): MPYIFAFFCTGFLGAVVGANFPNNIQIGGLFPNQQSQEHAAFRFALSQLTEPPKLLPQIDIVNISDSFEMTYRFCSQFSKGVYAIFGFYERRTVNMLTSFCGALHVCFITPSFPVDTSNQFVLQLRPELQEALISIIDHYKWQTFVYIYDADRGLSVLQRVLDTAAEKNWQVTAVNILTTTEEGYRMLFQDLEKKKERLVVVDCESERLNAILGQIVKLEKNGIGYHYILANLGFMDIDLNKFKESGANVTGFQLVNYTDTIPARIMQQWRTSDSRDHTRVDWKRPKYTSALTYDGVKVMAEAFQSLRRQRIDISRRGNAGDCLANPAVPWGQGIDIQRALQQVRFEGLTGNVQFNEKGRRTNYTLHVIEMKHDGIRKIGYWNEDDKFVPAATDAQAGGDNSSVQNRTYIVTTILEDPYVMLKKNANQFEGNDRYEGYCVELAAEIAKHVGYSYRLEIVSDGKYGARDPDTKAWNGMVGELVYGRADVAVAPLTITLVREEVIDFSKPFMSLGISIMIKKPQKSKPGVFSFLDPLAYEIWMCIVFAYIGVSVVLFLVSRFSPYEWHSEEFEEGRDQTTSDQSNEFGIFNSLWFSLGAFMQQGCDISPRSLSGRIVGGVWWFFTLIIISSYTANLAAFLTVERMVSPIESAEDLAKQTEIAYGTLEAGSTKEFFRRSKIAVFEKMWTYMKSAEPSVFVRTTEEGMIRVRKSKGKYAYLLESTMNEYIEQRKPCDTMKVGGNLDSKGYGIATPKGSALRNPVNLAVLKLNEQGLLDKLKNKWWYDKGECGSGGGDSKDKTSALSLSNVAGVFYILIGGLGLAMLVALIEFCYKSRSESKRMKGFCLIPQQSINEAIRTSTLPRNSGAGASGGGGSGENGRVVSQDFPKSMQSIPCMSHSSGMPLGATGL
As to `NCCCNCCCCNCCCNC(=O)c1cc2ccccc2[nH]1`, the IC50 entry is “Not Active”.

A further test deals with Glutamate receptor ionotropic, AMPA (Rattus norvegicus, UniProt P19490+P19491+P19492+P19493). As to the kind of experiment: Inhibition of kainate-induced currents of rat ionotropic glutamate receptor AMPA expressed in Xenopus laevis oocytes.
Details: not given
It is filed as cell-based, Oocyte.
Compound `CCCC(=O)N1C[C@@H](Oc2ccc3ccccc3c2)C[C@H]1C(=O)NCCCNCCCCNCCCN` displayed an IC50 of 1040 nM. This lies in the single-digit micromolar range.
Compound `CCCC(=O)N1Cc2ccc(O)cc2CC1C(=O)NCCCNCCCCNCCCN` (stereo not drawn) had a half-maximal inhibitory concentration (IC50) of 220 nM.
In turn, `CCCC(=O)NC1(C(=O)NCCCNCCCCNCCCN)Cc2ccccc2C1` gave an IC50 of 190 nM.
`CCCC(=O)N[C@H](Cc1ccc(O)cc1)C(=O)NCCCNCCCCNCCCN` had an IC50 of 70 nM. This IC50 is about 2.7-fold lower than that of the compound before.
Still for that read-out and setting: next, `CCCC(=O)N[C@@H](CCc1ccccc1)C(=O)NCCCNCCCCNCCCN`: 170 nM; `CCCC(=O)N[C@@H](Cc1ccc2ccccc2c1)C(=O)NCCCNCCCCNCCCN`: 100 nM.
For the compound `CCCC(=O)N[C@@H](Cc1ccc(O)cc1)C(=O)NCCCNCCCCNCCCN` [PHILANTHOTOXIN 343], inhibition was half-maximal at 130 nM (IC50).
Take `CCCC(=O)N[C@H](C(=O)NCCCNCCCCNCCCN)C(c1ccccc1)c1ccccc1`: it took 300 nM to reach half-maximal inhibition (IC50).
For the compound `CCCC(=O)N1C[C@H](OCc2ccccc2)C[C@H]1C(=O)NCCCNCCCCNCCCN`, inhibition was half-maximal at 260 nM (IC50).
Consider `CCCC(=O)N1CCC(C(=O)NCCCNCCCCNCCCN)(c2ccccc2)CC1`, for which the half-inhibitory concentration (IC50) was 1320 nM.
`CCCC(=O)N[C@@H](Cc1ccc(-c2ccccc2)cc1)C(=O)NCCCNCCCCNCCCN` returned a concentration for half-maximal inhibition (IC50) of 80 nM.
The same measure, in the same setting: next, `CCCC(=O)N1Cc2ccccc2C[C@H]1C(=O)NCCCNCCCCNCCCN`: 370 nM; `CCCC(=O)N1c2ccccc2CC1C(=O)NCCCNCCCCNCCCN` (stereo not drawn): 1390 nM; `CCCC(=O)N[C@H](C(=O)NCCCNCCCCNCCCN)c1ccccc1`: 320 nM.
In turn, `CCCC(=O)N[C@@H](Cc1ccccc1)C(=O)NCCCNCCCCNCCCN` showed an IC50 of 430 nM.
`CCCC(=O)NC1(C(=O)NCCCNCCCCNCCCN)CCc2ccccc2C1` (stereo not drawn): half-maximal inhibition (IC50) was put at 250 nM.
Still for that read-out and setting: the value for `CCCC(=O)N[C@@H](Cc1c[nH]c2ccccc12)C(=O)NCCCNCCCCNCCCN` was 300 nM.
